# Experimental data from patent US10085955B2, “Methods and compositions for treatment of demyelinating diseases” (Pathologica LLC, priority 2013, dated 2018).
# Read-outs that look alike come from different tables or passages of the source.
# What was measured:
# in vivo = assay: in vivo; parameters: species or system Sprague Dawley rats; settings: rat
# Procedure: Eighteen male Sprague Dawley rats (Charles River) weighing 217-263 g and aged 8-9 weeks were administered the test article, MGBG as either a single bolus intravenous dose of 1 mg/kg (Group 1) or as a single oral gavage dose of 10 mg/kg. A cohort of three animals was sacrificed via CO2 inhalation anesthesia after final blood collection at each of T=2, 4, 12, 24, 36, and 48 hours post-dose. Dose formulation analysis verified administered dose solutions as within 17% of targeted concentration of 10 mg/kg.
# Analysis was performed by LC/MS/MS. Pharmacokinetic analyses were performed on the mean MGBG plasma concentration versus time data using the non-compartmental approach (linear trapezoidal rule for AUC calculations). The WinNonlin sparse sampling tool was used for PK calculations. All samples reported as BLQ (Below the Limit of Quantitation, in plasma 2.50 ng/mL) were changed to 0.00 ng/mL for the purpose of analysis.
# Additionally, in rats dosed as above with single oral administration of MGBG at 10 mg/kg, immediately following the plasma sample collection for each cohort (i.e., 2, 4, 12, 24, 36, and 48 hours after dosing), three rats were sacrificed, and spleen and liver tissues collected and flask frozen. […] This is consistent with a selective uptake mechanism for MGBG. Without wishing to be bound by theory, other SAMDC inhibitors which are selectively uptaken by cells may, like MGBG, be useful in the methods and compositions disclosed herein.
# [1] = parameters: species or system DBA/1 mice; settings: male, DBA/1, mouse, in vivo
# Procedure: Twenty-four male DBA/1 mice weighing 19.5-24.7 g and aged 7-9 weeks administered the test article, MGBG, as either a single bolus intravenous dose via a lateral tail vein of 1 mg/kg (Group 1, n=12) or as a single oral gavage dose of 10 mg/kg (Group 2, n=12). Each dose group consisted of 4 cohorts of 3 animals each. Group 1 was sampled at 5, 15, and 30 minutes after dosing; and 1, 2, 4, 8, and 24 hours after dosing. Group 2 was sampled at 1, 2, 4, 8, 12, 24, and 36 hours after dosing. Starting with the first time point, a new cohort was sampled at each successive time point up to the 1-hour (Group 1) or […] (Group 2) time point. The order of sampling among the cohorts was repeated for the subsequent time points (some cohorts may have been bled only once). The second bleed for each cohort was terminal. Animals were sacrificed via CO2 inhalation anesthesia after final blood collection.
# The samples were centrifuged under refrigerated conditions following completion of sample collection at each interval. The resulting plasma was separated and stored frozen at approximately −70° C. until analysis. Analysis was performed by LC/MS/MS. Pharmacokinetic analyses were performed on the mean MGBG plasma concentration versus time data using the non-compartmental approach (linear trapezoidal rule for AUC calculations). The WinNonlin sparse sampling tool was used for PK calculations.
# The second method used to convert the efficacious 60 mg/kg/day dose in mice to an equivalent dose in humans was based more directly on allometric scaling. Data from an MGBG pharmacokinetic study consisting of a 10 mg/kg oral dose in mice was modeled in a simulation to determine the theoretical AUCINF value for a dosing regimen of 30 mg/kg PO BID, which was 9050 h*ng/mL. Next, predicted human clearance values as determined by single- and multi-species allometric scaling were used to estimate doses likely to produce an exposure in humans (AUCINF) similar to that of the 60 mg/kg/day in mice. […] Using multi-species allometric scaling, the predicted human equivalent dose is about 4.2 mg/kg/day.
# [2] = Multi-species allometric scaling, predicted human pharmacokinetic parameters; parameters: species or system humans; settings: based on Mouse, Dog, Rhesus
# Source text: Multi-species allometric scaling based on pharmacokinetic parameters disclosed in Tables 2 and 3 was employed to calculate predicted pharmacokinetic parameters in humans according to methods known in the art. See, e.g., Ings R M, “Interspecies scaling and comparisons in drug development and toxicokinetics,” Xenobiotica, 1990 November; 20(11):1201-31 and Khor, S P et al., “Dihydropyrimidine dehydrogenase inactivation and 5-fluorouracil pharmacokinetics: allometric scaling of animal data, pharmacokinetics and toxicodynamics of 5-fluorouracil in humans,” Cancer Chemother Pharmacol (1997) 39(3): 833-38. Expected values are given below in Tables 6 and 7.
# [3] = male, Sprague Dawley, iv, 1 mg/kg
# [4] = male, Sprague Dawley, po, 10 mg/kg
smiles,measurement,setting,value
"CC(/C=N/NC(=N)N)=N\NC(=N)N [MGBG, 1,1′ [methylethanediylidene]dinitrilodiguanidine]",Clobs,in vivo; [3],13.4 mL/min/kg
same,VSSobs,in vivo; [3],15.4 L/kg
same,Clobs,in vivo; [4],3.18 mL/min/kg
same,Vd,in vivo; [4],15.4 L/kg
same,time point through which MGBG levels were measurable in plasma,in vivo; [4],12 h
same,Kp,"in vivo; male, Sprague Dawley, po, 10 mg/kg, greater exposure (AUCall) of liver tissue compared to plasma",160
same,Kp,"in vivo; male, Sprague Dawley, po, 10 mg/kg, greater exposure (AUCall) of spleen tissue compared to plasma",9.3
same,Kp,"in vivo; male, Sprague Dawley, po, 10 mg/kg, greater exposure (Cmax) of liver tissue compared to plasma",120
same,Kp,"in vivo; male, Sprague Dawley, po, 10 mg/kg, greater exposure (Cmax) of spleen tissue compared to plasma",4
same,clinical findings after dosing,in vivo,Abnormal clinical findings were not noted
same,Clobs,"[1]; iv, 1 mg/kg",49.6 mL/min/kg
same,VSSobs,"[1]; iv, 1 mg/kg",38.3 L/kg
same,Clobs,"[1]; po, 10 mg/kg",6.68 mL/min/kg
same,Vd,"[1]; po, 10 mg/kg",38.3 L/kg
same,CL,[2]; IV,7.9 mL/min/kg
same,VSS,[2]; IV,9.1 L/kg
same,t1/2,[2]; IV,13.3 h
same,CL,"[2]; IV, Rat",7.7 mL/min/kg
same,VSS,"[2]; IV, Rat",9.0 L/kg
same,t1/2,"[2]; IV, Rat",13.4 h
same,CL,[2]; ORAL,20.9 mL/min/kg
same,VSS,[2]; ORAL,41.6 L/kg
same,t1/2,[2]; ORAL,23.0 h
same,CL,"[2]; ORAL, Rat",21.0 mL/min/kg
same,VSS,"[2]; ORAL, Rat",42.4 L/kg
same,t1/2,"[2]; ORAL, Rat",23.3 h
